Experimental data from patent US5002969A, “Pharmaceutical compositions containing titanocene complexes and use of these complexes as cytostatic agents” (priority 1985, dated 1991).

How the values were obtained:
Ehrlich ascites tumor = experiment: Activity against Ehrlich Ascites Tumor; format: in vivo, Female CF1 mice; conditions: single i.p. dose, 24 h after tumor inoculation
Experimental: Female CF1 mice are each given about 6×10^6 Ehrlich ascites tumor cells by means of intraperitoneal injection and, 24 hours later, a single intraperitoneal dose of substance dose range of 20 to 500 mg/kg) in physiological saline solution (0.4 ml). In each case 5 to 10 animals are tested per dose. If appropriate, the preparation can be buffered to a pH of 4 to 7, for example with sodium bicarbonate or tris-(hydroxymethyl)-aminomethane, in order to avoid local irritation at the injection site. A group of untreated control animals which were injected intraperitoneally with 0.4 ml of physiological saline solution without administration of the substance is also run for each test series.
The tumor development in the individual dose ranges is evaluated by means of the weight course and survival time. The dose-dependent number of tumor deaths, toxicity deaths and surviving, and the associated percentage increase in the average survival time are determined for each substance.

ascitic Sarcoma 180 = experiment: Activity against ascitic Sarcoma 180; format: in vivo, female NMRI mice; conditions: for Survivors/Animals Treated: day 80; for MST (mean survival time): mean (range)
Description: Each animal obtained about 10^7 tumor cells.
Every day occuring deaths were noted.

B16 Melanoma = experiment: Activity against B16 Melanoma; format: in vivo, female B6 D2 F1 mice; conditions: day 10
Experimental: (§1) The B16 melanoma and colon 38 carcinoma used were obtained from the NCI Liasion Office, Institut Jules Bordet, Brussels, Belgium and, for propagation, were kept as solid, subcutaneously growing tumor lines on male C57BL/6J mice. For testing, the tumors were transplanted to female B6 D2 F1 mice. All animals were kept under standard conditions (22°-23° C., tap water and altromin food ad libitum, 12-h light-dark rhythm).
(§2) For tumor transplantation on day 0 of the testing experiments, solid tumors were removed from donor mice, minced with scissors and reduced to small particles. After suspension in twofold volumes of Hank's balanced salt solution, volumes of 0.3 ml were inoculated subcutaneously into the axillary region, resulting in the growth of solitary solid tumors.
(§3) The test compounds were administered either as a single injection on day 1 or as three injections on days 1, 3 and 5, or as five injections on days 1, 3, 5, 7 and 9. The different doses applied and the animal distribution are recorded in table 4. The substances, dissolved or suspended in a DMSO-saline mixture (1/9=v/v), were always injected intraperitoneally. The concentrations were selected in such a manner that each mouse received a total volume of 0.4 to 0.5 ml. Control animals only obtained one, three or five injections of the DMSO-saline mixture (0.5 ml/animal) without drug addition.
(§4) The number of deaths was recorded daily. Deaths occuring within 7 days (single injection), 11 days (three injections) or 15 days (five injections) after tumor transplantation were defined as deaths due to substance toxicity.
(§5) In the case of B16 melonoma, the tumors were removed and weighed on day 10 for the single and three injections or on day 15 for the five injections. Colon 38 carcinomas were always evaluated on day 15 of the experiment.

Colon 38 Carcinoma = experiment: Activity against Colon 38 Carcinoma; format: in vivo, female B6 D2 F1 mice; conditions: day 15
Experimental: as §1, §2, §3, §4, §5

solid Sarcoma 180 = experiment: Activity against solid Sarcoma 180; conditions: for T/C / Tumor Weight: day 9; for Tumor Weight: mean ± SD
Rectum Adenocarcinoma = experiment: Activity against heterotransplanted human rectum adenocarcinoma; format: in vivo; conditions: day 25
Experimental: (§6) The same testing procedure as in the tests with B16 melanoma and colon 38 carcinoma was employed. The test compounds were applied in equivalent and equitoxic doses, subdivided into five injections. The first injection was administered on day 8 (mammary carcinoma), day 10 (adenocarcinoma of rectum and lung) and day 26 (small cell lung carcinoma) of the tumor transplantation. The T/C values were determined 3 days after the last substance injection, i.e., on day 23 (mammary carcinoma), day 25 (adenocarcinoma of rectum and lung) and day 41 (small cell lung carcinoma).

Lung Adenocarcinoma = experiment: Activity against heterotransplanted human lung adenocarcinoma; format: in vivo; conditions: day 25
Experimental: as §6

[1] = tested on: Lung Small Cell Carcinoma; experiment: Activity against heterotransplanted human small cell lung carcinoma; format: in vivo; conditions: day 41
Experimental: as §6

Mammary Carcinoma = experiment: Activity against heterotransplanted human mammary carcinoma; format: in vivo, human tumor xenograft tumor xenograft tumor xenograft; conditions: day 23
Experimental: as §6

Molecule: Cl.Cl.Nc1ccc([S][Ti]([S]c2ccc(N)cc2)([CH]2C=CC=C2)[CH]2C=CC=C2)cc1 [Compound 1, Bis(p-aminothiophenolato)bis(.eta.^5 -cyclopentadienyl)titanium(IV)-dihydrochloride]
- Optimal Treating Rate (Ehrlich ascites tumor): 100%
- Therapeutic Index (LD50/ED90) (Ehrlich ascites tumor): 4,3
- ILS (increase in life span) (ascitic Sarcoma 180; 1 × 60 mg/kg): 15%
- ILS (increase in life span) (ascitic Sarcoma 180; 1 × 100 mg/kg): 139%
- Survivors/Animals Treated (ascitic Sarcoma 180; 1 × 100 mg/kg): 1/5
- MST (mean survival time) (ascitic Sarcoma 180; 1 × 100 mg/kg): 39,4 (19-80) d
- T/C (B16 Melanoma; 1 × 100 mg/kg i.p.): 80%
- T/C (B16 Melanoma; 3 × 60 mg/kg i.p.): 36%
- T/C (Colon 38 Carcinoma; 1 × 100 mg/kg i.p.): 61%
- T/C (Colon 38 Carcinoma; 3 × 60 mg/kg i.p.): 38%
- T/C (solid Sarcoma 180; 1 × 60 mg/kg): 109%
- Tumor Weight (solid Sarcoma 180; 1 × 60 mg/kg): 1,30 ± 0,30 g
- T/C (solid Sarcoma 180; 1 × 100 mg/kg): 86%
- Tumor Weight (solid Sarcoma 180; 1 × 100 mg/kg): 1,03 ± 0,26 g
- T/C (solid Sarcoma 180; 3 × 60 mg/kg): 39%
- Tumor Weight (solid Sarcoma 180; 3 × 60 mg/kg): 0,47 ± 0,12 g

Molecule: Cl.Nc1ccc([S][Ti]([Cl])([CH]2C=CC=C2)[CH]2C=CC=C2)cc1 [Compound 2, p-aminothiophenolato-chloro-bis(.eta.^5 -cyclopentadienyl)titanium(IV)-hydrochloride]
- Optimal Treating Rate (Ehrlich ascites tumor): 100%
- Therapeutic Index (LD50/ED90) (Ehrlich ascites tumor): 4,4

Molecule: O=C(O)C=CC(=O)[O][Ti+2][O]C(=O)C=CC(=O)O.c1cc[cH-]c1.c1cc[cH-]c1 [Compound 3, Bis(hydrogenmaleinato)bis(.eta.^5 -cyclopentadienyl)titanium(IV)]
- Optimal Treating Rate (Ehrlich ascites tumor): 100%
- Therapeutic Index (LD50/ED90) (Ehrlich ascites tumor): 3,8
- ILS (increase in life span) (ascitic Sarcoma 180; 1 × 80 mg/kg): 95%
- Survivors/Animals Treated (ascitic Sarcoma 180; 1 × 80 mg/kg): 1/5
- MST (mean survival time) (ascitic Sarcoma 180; 1 × 80 mg/kg): 32,2 (15-80) d
- ILS (increase in life span) (ascitic Sarcoma 180; 1 × 120 mg/kg): 125%
- Survivors/Animals Treated (ascitic Sarcoma 180; 1 × 120 mg/kg): 1/5
- MST (mean survival time) (ascitic Sarcoma 180; 1 × 120 mg/kg): 37,2 (21-80) d
- T/C (B16 Melanoma; 1 × 120 mg/kg i.p.): 89%
- T/C (B16 Melanoma; 3 × 100 mg/kg i.p.): 50%
- T/C (Colon 38 Carcinoma; 1 × 120 mg/kg i.p.): 72%
- T/C (Colon 38 Carcinoma; 3 × 100 mg/kg i.p.): 50%
- T/C (based on mean relative volume of tumor) (Rectum Adenocarcinoma; 5 × 30 mg/kg): 89%
- T/C (based on mean relative volume of tumor) (Lung Adenocarcinoma; 5 × 30 mg/kg): 35%
- T/C (based on mean relative volume of tumor) ([1]; 5 × 30 mg/kg): 65%
- T/C (based on mean relative volume of tumor) (Mammary Carcinoma; 5 × 30 mg/kg): 40%
- T/C (solid Sarcoma 180; 1 × 80 mg/kg): 95%
- Tumor Weight (solid Sarcoma 180; 1 × 80 mg/kg): 1,13 ± 0,18 g
- T/C (solid Sarcoma 180; 1 × 120 mg/kg): 73%
- Tumor Weight (solid Sarcoma 180; 1 × 120 mg/kg): 0,87 ± 0,41 g
- T/C (solid Sarcoma 180; 3 × 60 mg/kg): 76%
- Tumor Weight (solid Sarcoma 180; 3 × 60 mg/kg): 0,91 ± 0,25 g
- T/C (solid Sarcoma 180; 3 × 100 mg/kg): 53%
- Tumor Weight (solid Sarcoma 180; 3 × 100 mg/kg): 0,63 ± 0,14 g

Molecule: O=C([O][Ti+2][O]C(=O)C(Cl)(Cl)Cl)C(Cl)(Cl)Cl.c1cc[cH-]c1.c1cc[cH-]c1 [Compound 4, Bis(trichloroacetato)bis(.eta.^5 -cyclopentadienyl)titanium(IV)]
- Optimal Treating Rate (Ehrlich ascites tumor): 100%
- Therapeutic Index (LD50/ED90) (Ehrlich ascites tumor): 5,5
- ILS (increase in life span) (ascitic Sarcoma 180; 1 × 220 mg/kg): 4%
- MST (mean survival time) (ascitic Sarcoma 180; 1 × 220 mg/kg): 17,2 (15-20) d
- ILS (increase in life span) (ascitic Sarcoma 180; 1 × 320 mg/kg): 96%
- Survivors/Animals Treated (ascitic Sarcoma 180; 1 × 320 mg/kg): 1/5
- MST (mean survival time) (ascitic Sarcoma 180; 1 × 320 mg/kg): 32,4 (18-80) d
- T/C (B16 Melanoma; 1 × 320 mg/kg i.p.): 85%
- T/C (B16 Melanoma; 3 × 300 mg/kg i.p.): 41%
- T/C (Colon 38 Carcinoma; 1 × 320 mg/kg i.p.): 48%
- T/C (solid Sarcoma 180; 1 × 220 mg/kg): 96%
- Tumor Weight (solid Sarcoma 180; 1 × 220 mg/kg): 1,14 ± 0,26 g
- T/C (solid Sarcoma 180; 1 × 320 mg/kg): 67%
- Tumor Weight (solid Sarcoma 180; 1 × 320 mg/kg): 0,79 ± 0,28 g
- T/C (solid Sarcoma 180; 3 × 200 mg/kg): 106%
- Tumor Weight (solid Sarcoma 180; 3 × 200 mg/kg): 1,26 ± 0,30 g
- Toxicity Deaths/Animals Treated (solid Sarcoma 180; 3 × 300 mg/kg): 1/5
- T/C (solid Sarcoma 180; 3 × 300 mg/kg): 37%
- Tumor Weight (solid Sarcoma 180; 3 × 300 mg/kg): 0,44 ± 0,14 g

Molecule: Titanocene dibromide [reference compound]
- ILS (increase in life span) (ascitic Sarcoma 180; 1 × 50 mg/kg, group of 5): 61%
- MST (mean survival time) (ascitic Sarcoma 180; 1 × 50 mg/kg, group of 5): 28,4 (22-34) d
- ILS (increase in life span) (ascitic Sarcoma 180; 1 × 60 mg/kg): 128%
- Survivors/Animals Treated (ascitic Sarcoma 180; 1 × 60 mg/kg): 1/5
- MST (mean survival time) (ascitic Sarcoma 180; 1 × 60 mg/kg): 40,2 (20-80) d
- T/C (B16 Melanoma; 1 × 60 mg/kg i.p.): 42%
- T/C (B16 Melanoma; 3 × 50 mg/kg i.p.): 48%
- T/C (B16 Melanoma; 3 × 60 mg/kg i.p.): 44%
- T/C (Colon 38 Carcinoma; 1 × 60 mg/kg i.p.): 36%
- T/C (Colon 38 Carcinoma; 3 × 50 mg/kg i.p.): 51%
- T/C (based on mean relative volume of tumor) (Rectum Adenocarcinoma; 5 × 20 mg/kg): 48%
- T/C (based on mean relative volume of tumor) (Lung Adenocarcinoma; 5 × 20 mg/kg): 53%
- T/C (based on mean relative volume of tumor) ([1]; 5 × 20 mg/kg): 96%
- T/C (based on mean relative volume of tumor) (Mammary Carcinoma; 5 × 20 mg/kg): 44%
- T/C (solid Sarcoma 180; 1 × 50 mg/kg): 108%
- Tumor Weight (solid Sarcoma 180; 1 × 50 mg/kg): 1,27 ± 0,37 g
- T/C (solid Sarcoma 180; 1 × 60 mg/kg): 94%
- Tumor Weight (solid Sarcoma 180; 1 × 60 mg/kg): 1,21 ± 0,37 g
- T/C (solid Sarcoma 180; 3 × 50 mg/kg): 53%
- Tumor Weight (solid Sarcoma 180; 3 × 50 mg/kg): 0,69 ± 0,17 g
- Toxicity Deaths/Animals Treated (solid Sarcoma 180; 3 × 60 mg/kg): 1/5
- T/C (solid Sarcoma 180; 3 × 60 mg/kg): 37%
- Tumor Weight (solid Sarcoma 180; 3 × 60 mg/kg): 0,48 ± 0,10 g
